What was measured:
PC3 cells = test: NAMPT Cell Proliferation Assay (Cell Titer Glo); assay type: cell-based; settings: Homo sapiens, PC-3, 120 h, incubated 5 days, cell viability
Procedure: NAMPT Cell Proliferation Assay
PC3 cells were seeded in 96-well black plates (Corning #3904) at 500 cells/well in 90 µl of RPMI media containing 10% heat-inactivated FBS and incubated overnight at 37° C. and 5% CO2 to allow cells to attach to wells. The following day, test compounds were serially diluted in neat DMSO to 1000× final concentrations prior to dilution with RPMI media to 10× and 1% DMSO. Ten L of the 10× compounds were then transferred to wells containing cells to produce a dose response of 10-fold dilutions from […]. Cells were incubated for 5 days at 37° C. and 5% CO2, then cell viability was measured using Cell Titer Glo reagent (Promega #G7571). Percent inhibition values were calculated and fitted to a sigmoidal dose response curves using Assay Explorer software to determine IC50s.

NAMPT = NAMPT (Homo sapiens, UniProt P43490); test: Time-Resolved Fluorescence Resonance Energy Transfer (TR-FRET) Binding Assay of NAMPT; settings: 6.8 nM NAMPT, 200 nM probe, equilibrated 3 hours, no substrates
Procedure: Determination of the utility of compounds having Formula (I) as binders to and inhibitors of NAMPT was performed using Time-Resolved Fluorescence Resonance Energy Transfer (TR-FRET) binding assays.
Time-Resolved Fluorescence Resonance Energy Transfer (TR-FRET) Binding Assay of NAMPT
Six L were transferred to 384-well low-volume plates ([…] #3673). To this, 12 L of a 1.5× solution containing enzyme, probe and antibody were added. […] Reactions were equilibrated at room temperature for 3 hours prior to reading on an Envision multi-label plate reader (Perkin Elmer; Ex=337 nm, Em=520 and 495 nm). Time-resolved FRET ratios (Em520/Em495) were normalized to controls, plotted as a function of compound concentration and fit with the four-parameter logistic equation to determine IC50s.

Chain of NAMPT (P43490 whole entry): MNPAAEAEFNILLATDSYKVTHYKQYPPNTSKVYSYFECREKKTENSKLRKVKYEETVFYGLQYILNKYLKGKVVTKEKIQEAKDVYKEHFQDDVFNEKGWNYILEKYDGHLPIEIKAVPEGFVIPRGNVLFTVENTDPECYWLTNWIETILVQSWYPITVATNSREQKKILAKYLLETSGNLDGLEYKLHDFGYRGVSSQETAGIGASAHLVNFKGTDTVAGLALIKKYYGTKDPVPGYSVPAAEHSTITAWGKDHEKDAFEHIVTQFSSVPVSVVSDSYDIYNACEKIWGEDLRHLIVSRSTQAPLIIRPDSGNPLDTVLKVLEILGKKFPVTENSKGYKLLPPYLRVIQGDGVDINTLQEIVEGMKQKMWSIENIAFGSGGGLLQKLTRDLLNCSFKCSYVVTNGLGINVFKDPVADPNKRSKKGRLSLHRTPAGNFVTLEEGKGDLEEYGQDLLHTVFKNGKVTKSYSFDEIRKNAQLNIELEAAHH

| Structure (SMILES) | IC50 (PC3 cells) [µM] | IC50 (NAMPT) [µM] |
| --- | --- | --- |
| CCC(C)CC(=O)N1CC[C@@H](Oc2ccc(NC(=O)N3CC(c4cccnc4)C3)cc2)C1 (stereo partly drawn) [Example 298, N-(4-{[(3R)-1-(3-methylpentanoyl)pyrrolidin-3-yl]oxy}phenyl)-3-(pyridin-3-yl)azetidine-1-carboxamide] | 0.0112 | 0.0352 |
| O=C(CC1CC1)N1CC[C@H](Oc2ccc(NC(=O)N3CC(c4cccnc4)C3)cc2)C1 [Example 93, N-(4-{[(3S)-1-(cyclopropylacetyl)pyrrolidin-3-yl]oxy}phenyl)-3-(pyridin-3-yl)azetidine-1-carboxamide] | 0.0876 | 0.138 |
| CC(C)C(=O)N1CCC(c2ccc(NC(=O)N3CC(c4cccnc4)C3)cc2)C1 (stereo not shown) [Example 65, N-{4-[1-(2-methylpropanoyl)pyrrolidin-3-yl]phenyl}-3-(pyridin-3-yl)azetidine-1-carboxamide] | 0.0622 | 0.0566 |
| CCCC(=O)N1CC[C@@H](Oc2ccc(NC(=O)N3CC(c4cccnc4)C3)cc2)C1 [Example 87, N-(4-{[(3R)-1-butanoylpyrrolidin-3-yl]oxy}phenyl)-3-(pyridin-3-yl)azetidine-1-carboxamide] | 0.00604 | 0.0198 |
| O=C(Nc1ccc(OC2CN(C(=O)c3ccoc3)C2)cc1)N1CC(c2cccnc2)C1 [Example 151, N-(4-{[1-(furan-3-ylcarbonyl)azetidin-3-yl]oxy}phenyl)-3-(pyridin-3-yl)azetidine-1-carboxamide] | 0.0154 | 0.0208 |
| O=C(Nc1ccc(OC2CN(C(=O)c3nccs3)C2)cc1)N1CC(c2cccnc2)C1 [Example 154, 3-(pyridin-3-yl)-N-(4-{[1-(1,3-thiazol-2-ylcarbonyl)azetidin-3-yl]oxy}phenyl)azetidine-1-carboxamide] | 0.00789 | 0.024 |
| CC(C)(C)OC(=O)N1CC[C@@H](Oc2ccc(NC(=O)N3CC(c4cccnc4)C3)cc2)C1 [Example 60, tert-butyl (3R)-3-[4-({[3-(pyridin-3-yl)azetidin-1-yl]carbonyl}amino)phenoxy]pyrrolidine-1-carboxylate] | 0.0749 | 0.0554 |
| O=C(Nc1ccc(C2CN(CC3CCCC3)C2)cc1)N1CC(c2cccnc2)C1 [Example 245, N-{4-[1-(cyclopentylmethyl)azetidin-3-yl]phenyl}-3-(pyridin-3-yl)azetidine-1-carboxamide] | 0.617 | 0.317 |
| O=C(Nc1ccc(C2CCN(C(=O)[C@@H]3CCCO3)CC2)cc1)N1CC(c2cccnc2)C1 [Example 52, 3-(pyridin-3-yl)-N-(4-{1-[(2S)-tetrahydrofuran-2-ylcarbonyl]piperidin-4-yl}phenyl)azetidine-1-carboxamide] | 0.00678 | 0.0389 |
| COCC(=O)N1CCC(Oc2ccc(NC(=O)N3CC(c4cccnc4)C3)cc2)CC1 [Example 48, N-(4-{[1-(methoxyacetyl)piperidin-4-yl]oxy}phenyl)-3-(pyridin-3-yl)azetidine-1-carboxamide] | 0.0958 | 0.206 |
| O=C(CC1CC1)N1CCC(c2ccc(NC(=O)N3CC(c4cccnc4)C3)cc2)CC1 [Example 55, N-{4-[1-(cyclopropylacetyl)piperidin-4-yl]phenyl}-3-(pyridin-3-yl)azetidine-1-carboxamide] | 0.00806 | 0.0293 |
| O=C(Nc1ccc(O[C@@H]2CCN(C(=O)c3ccccc3)C2)cc1)N1CC(c2cccnc2)C1 [Example 83, N-(4-{[(3R)-1-benzoylpyrrolidin-3-yl]oxy}phenyl)-3-(pyridin-3-yl)azetidine-1-carboxamide] | 0.00685 | 0.00722 |
| O=C(CCN1CCOCC1)N1CCC(c2ccc(NC(=O)N3CC(c4cccnc4)C3)cc2)C1 (stereo not shown) [Example 281, N-(4-{1-[3-(morpholin-4-yl)propanoyl]pyrrolidin-3-yl}phenyl)-3-(pyridin-3-yl)azetidine-1-carboxamide] | 0.125 | 0.0656 |
| CC(C)CCC(=O)N1CC[C@@H](Oc2ccc(NC(=O)N3CC(c4cccnc4)C3)cc2)C1 [Example 315, N-(4-{[(3R)-1-(4-methylpentanoyl)pyrrolidin-3-yl]oxy}phenyl)-3-(pyridin-3-yl)azetidine-1-carboxamide] | 0.0542 | 0.0487 |
| O=C(CC1CCOCC1)N1CC[C@@H](Oc2ccc(NC(=O)N3CC(c4cccnc4)C3)cc2)C1 [Example 76, 3-(pyridin-3-yl)-N-(4-{[(3R)-1-(tetrahydro-2H-pyran-4-ylacetyl)pyrrolidin-3-yl]oxy}phenyl)azetidine-1-carboxamide] | 0.0224 | 0.0836 |
| Cn1cccc1C(=O)N1CCC(c2ccc(NC(=O)N3CC(c4cccnc4)C3)cc2)C1 (stereo not shown) [Example 285, N-(4-{1-[(1-methyl-1H-pyrrol-2-yl)carbonyl]pyrrolidin-3-yl}phenyl)-3-(pyridin-3-yl)azetidine-1-carboxamide] | 0.0265 | 0.0172 |
| O=C1CC[C@@H](C(=O)N2CCC(c3ccc(NC(=O)N4CC(c5cccnc5)C4)cc3)C2)N1 (stereo partly drawn) [Example 273, N-{4-[1-(5-oxo-L-prolyl)pyrrolidin-3-yl]phenyl}-3-(pyridin-3-yl)azetidine-1-carboxamide] | 7.27 | 0.203 |
| O=C(Nc1ccc(O[C@H]2CCN(C(=O)[C@H]3CCCO3)C2)cc1)N1CC(c2cccnc2)C1 [Example 91, 3-(pyridin-3-yl)-N-[4-({(3S)-1-[(2R)-tetrahydrofuran-2-ylcarbonyl]pyrrolidin-3-yl}oxy)phenyl]azetidine-1-carboxamide] | 0.111 | 0.32 |
| CN(C)CCC(=O)N1CCC(c2ccc(NC(=O)N3CC(c4cccnc4)C3)cc2)C1 (stereo not drawn) [Example 266, N-{4-[1-(N,N-dimethyl-beta-alanyl)pyrrolidin-3-yl]phenyl}-3-(pyridin-3-yl)azetidine-1-carboxamide] | 0.207 | 0.0962 |
| O=C(Nc1ccc(C2CCN(C(=O)[C@H]3CCCO3)CC2)cc1)N1CC(c2cccnc2)C1 [Example 54, 3-(pyridin-3-yl)-N-(4-{1-[(2R)-tetrahydrofuran-2-ylcarbonyl]piperidin-4-yl}phenyl)azetidine-1-carboxamide] | 0.0589 | 0.117 |
| O=C(Nc1ccc(C2CCN(C(=O)c3ccco3)C2)cc1)N1CC(c2cccnc2)C1 (stereo not shown) [Example 286, N-{4-[1-(furan-2-ylcarbonyl)pyrrolidin-3-yl]phenyl}-3-(pyridin-3-yl)azetidine-1-carboxamide] | 0.00766 | 0.00976 |
| O=C(Nc1ccc(O[C@@H]2CCN(C(=O)C3CCOC3)C2)cc1)N1CC(c2cccnc2)C1 (stereo partly drawn) [Example 80, 3-(pyridin-3-yl)-N-(4-{[(3R)-1-(tetrahydrofuran-3-ylcarbonyl)pyrrolidin-3-yl]oxy}phenyl)azetidine-1-carboxamide] | 0.0632 | 0.122 |
| O=C(Nc1ccc(OC2CCN(C(=O)[C@H]3CCCO3)CC2)cc1)N1CC(c2cccnc2)C1 [Example 5, 3-(pyridin-3-yl)-N-[4-({1-[(2R)-tetrahydrofuran-2-ylcarbonyl]piperidin-4-yl}oxy)phenyl]azetidine-1-carboxamide] | 0.0283 | 0.0568 |
